Assay results published in the supplement of paper PMC13207355.

Experiments:
Conditions in all cases: exposure time: 72 h
[1] = tested on: E13 (patient-derived glioblastoma stem cells of classical subtype); assay: surviving fraction (nuclei count normalised to DMSO); higher = more cells surviving (less toxic)
[2] = tested on: E21 (patient-derived glioblastoma stem cells of mesenchymal subtype); assay: as above
[3] = tested on: E28 (patient-derived glioblastoma stem cells of classical subtype); assay: as above
[4] = tested on: E31 (patient-derived glioblastoma stem cells of proneural subtype); assay: as above
[5] = tested on: E34 (patient-derived glioblastoma stem cells of proneural subtype); assay: as above
[6] = tested on: E57 (patient-derived glioblastoma stem cells of mesenchymal subtype); assay: as above
[7] = tested on: FT3469 (normal neural stem cell line); assay: as above
[8] = tested on: E13; assay: phenotypic distance (Euclidean, principal components) from DMSO controls (arbitrary units); higher = stronger morphological change
[9] = tested on: E21; assay: as above
[10] = tested on: E28; assay: as above
[11] = tested on: E31; assay: as above
[12] = tested on: E34; assay: as above
[13] = tested on: E57; assay: as above
[14] = tested on: FT3469; assay: as above
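Throughout, for phenotypic distance (Euclidean, principal components) from DMSO controls: cell Painting imaging in 384-well plates, CellProfiler features reduced to at least 20 principal components, Euclidean distance versus same-plate DMSO vehicle wells (0.1% v/v), median over six images per well.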
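Throughout, for surviving fraction (nuclei count normalised to DMSO): nuclei counted by high-content imaging of Hoechst-stained cells in laminin-coated 384-well plates, relative to 0.1% DMSO vehicle wells, with staurosporine as cell-death control.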

C[C@@H](Oc1cc(-c2cnn(C3CCNCC3)c2)cnc1N)c1c(Cl)ccc(F)c1Cl [Crizotinib]
Conditions | phenotypic distance | surviving fraction
[1], 4.1 nM | – | 0.978
[1], 12.3 nM | – | 0.948
[1], 37 nM | – | 0.972
[1], 111.1 nM | – | 0.863
[1], 333.3 nM | – | 0.881
[1], 1000 nM | – | 0.849
[1], 3000 nM | – | 0.482
[2], 4.1 nM | – | 0.907
[2], 12.3 nM | – | 0.826
[2], 37 nM | – | 1.02
[2], 111.1 nM | – | 0.883
[2], 333.3 nM | – | 0.986
[2], 1000 nM | – | 0.78
[2], 3000 nM | – | 0.472
[3], 4.1 nM | – | 1.02
[3], 12.3 nM | – | 0.941
[3], 37 nM | – | 0.83
[3], 111.1 nM | – | 0.923
[3], 333.3 nM | – | 0.96
[3], 1000 nM | – | 0.837
[3], 3000 nM | – | 0.326
[4], 4.1 nM | – | 0.998
[4], 12.3 nM | – | 1.05
[4], 37 nM | – | 0.891
[4], 111.1 nM | – | 0.884
[4], 333.3 nM | – | 1.13
[4], 1000 nM | – | 0.96
[4], 3000 nM | – | 0.472
[5], 4.1 nM | – | 0.973
[5], 12.3 nM | – | 0.985
[5], 37 nM | – | 0.786
[5], 111.1 nM | – | 1.1
[5], 333.3 nM | – | 0.933
[5], 1000 nM | – | 0.88
[5], 3000 nM | – | 0.565
[6], 4.1 nM | – | 1.03
[6], 12.3 nM | – | 0.937
[6], 37 nM | – | 1.01
[6], 111.1 nM | – | 0.957
[6], 333.3 nM | – | 1.04
[6], 1000 nM | – | 0.857
[6], 3000 nM | – | 0.477
[7], 4.1 nM | – | 0.854
[7], 12.3 nM | – | 1.03
[7], 37 nM | – | 1.09
[7], 111.1 nM | – | 1.09
[7], 333.3 nM | – | 0.941
[7], 1000 nM | – | 0.891
[7], 3000 nM | – | 0.574
[8], 4.1 nM | 0.499 | –
[8], 12.3 nM | 0.452 | –
[8], 37 nM | 0.936 | –
[8], 111.1 nM | 0.626 | –
[8], 333.3 nM | 0.58 | –
[8], 1000 nM | 1.09 | –
[8], 3000 nM | 3.75 | –
[9], 4.1 nM | 0.599 | –
[9], 12.3 nM | 1.58 | –
[9], 37 nM | 0.706 | –
[9], 111.1 nM | 0.783 | –
[9], 333.3 nM | 0.751 | –
[9], 1000 nM | 1.37 | –
[9], 3000 nM | 3.3 | –
[10], 4.1 nM | 0.935 | –
[10], 12.3 nM | 0.741 | –
[10], 37 nM | 1.91 | –
[10], 111.1 nM | 0.725 | –
[10], 333.3 nM | 0.457 | –
[10], 1000 nM | 0.886 | –
[10], 3000 nM | 2.74 | –
[11], 4.1 nM | 0.339 | –
[11], 12.3 nM | 0.524 | –
[11], 37 nM | 0.734 | –
[11], 111.1 nM | 0.728 | –
[11], 333.3 nM | 0.762 | –
[11], 1000 nM | 1.01 | –
[11], 3000 nM | 3.13 | –
[12], 4.1 nM | 0.825 | –
[12], 12.3 nM | 0.797 | –
[12], 37 nM | 0.989 | –
[12], 111.1 nM | 0.934 | –
[12], 333.3 nM | 0.571 | –
[12], 1000 nM | 1.16 | –
[12], 3000 nM | 2.7 | –
[13], 4.1 nM | 0.221 | –
[13], 12.3 nM | 1.2 | –
[13], 37 nM | 0.43 | –
[13], 111.1 nM | 0.517 | –
[13], 333.3 nM | 0.355 | –
[13], 1000 nM | 0.883 | –
[13], 3000 nM | 4.09 | –
[14], 4.1 nM | 0.558 | –
[14], 12.3 nM | 0.592 | –
[14], 37 nM | 0.496 | –
[14], 111.1 nM | 0.573 | –
[14], 333.3 nM | 0.58 | –
[14], 1000 nM | 0.774 | –
[14], 3000 nM | 2.09 | –
